Test [1] deals with cells originated from human mouth tumour (KB-cells). In words: Inhibition of the proliferation of cells originated from human mouth tumour (KB-cells), Trypan Blue staining. In kind it is cell-based. To be noted: 96 h, 37° C., 4 days, relative to control (0.1% ethanol), read-out: Percent Inhibition of proliferation, KB-cells; for inhibition at 1 µg/mL: 1 μg/ml; for inhibition at 5 µg/mL: 5 μg/ml. The protocol: Test on the Inhibition of the Proliferation of Cells Originated from Human Mouth Tumour (KB-cells) Experimental method
The test on the inhibition of the proliferation of cells originated from human mouth tumour was conducted by a well known method. The cells originated from human mouth tumour (KB-cells) were added to an Eagle's MEM culture solution containing 10% bovine fetal serum, the number of cells in the culture solution was adjusted to 1×10^5 cells/ml, a solution in ethanol of the compound under test was added to give a concentration of 5 μg/ml or 1 μg/ml, and the mixture was subjected to stationary culture at 37° C. for 4 days. As a control, a culture solution containing 0.1% of ethanol was similarly cultured. The culture solutions were stained by the Trypan Blue staining method and the surviving cell number was measured to determine the degree of inhibition relative to the control.

Test [2] concerns human myelogenous leukemic cells (HL-60). In words: Inhibition of the proliferation of human myelogenous leukemic cells (HL-60), Trypan Blue staining. The format is cell-based. To be noted: HL-60, 96 h, 37° C., 4 days, relative to control (0.1% ethanol), read-out: Percent Inhibition of proliferation, HL-60 cells; for inhibition at 1 µg/mL: 1 μg/ml; for inhibition at 5 µg/mL: 5 μg/ml. The protocol: Test on the Inhibition of the Proliferation of Human Myelogenous Leukemic Cells (HL-60) Experimental method
The test on the inhibition of the proliferation of human myelogenous leukemic cells was conducted by a well known method. The human myelogenous leukemic cells (HL-60) were added to an RPMI culture solution containing 10% bovine fetal serum, the number of cells in the culture solution was adjusted to 1×10^5 cells/ml, a solution in ethanol of the compound under test was added to give a concentration of 5 μg/ml or 1 μg/ml, and the mixture was subjected to stationary culture at 37° C. for 4 days. As a control, a culture solution containing 0.1% of ethanol was similarly cultured. The culture solutions were stained by the Trypan Blue staining method and the surviving cell number was measured to determine the degree of inhibition relative to the control.

Take `CCCCC[C@H](O)/C=C/[C@H]1C(=O)C=C[C@@H]1C/C=C\C/C=C/C(=O)O` [Trans-Δ^2-9-deoxy-Δ^9 -PGD2, (2E,5Z,9Z,13E)-(15S)-11-oxo-15-hydroxyprosta-2,5,9,13-tetraenoic acid]: the values for the inhibition at 1 µg/mL in test [1] and in test [2] were 9.7% and 1.4%, respectively. Besides, the inhibition at 5 µg/mL was found to be 98.5% in test [1] and 99% in test [2].

As for `CCCCCC=CC=C1C(=O)C=C[C@@H]1C/C=C\C/C=C/C(=O)O` [(2E,5Z,9Z,14EZ)-11-oxoprosta-2,5,9,12,14-pentaenoic acid], in test [1], the inhibition at 1 µg/mL turned out to be 0% and the inhibition at 5 µg/mL stood at 100%. For the same molecule, in test [2], the inhibition at 1 µg/mL was 4.8% and the inhibition at 5 µg/mL stood at 98.3%.

For `CCCCC[C@H](O)/C=C/[C@H]1C(=O)C[C@H](O)[C@@H]1C/C=C\C/C=C/C(=O)O` [Trans-Δ^2 -PGD2, (2E,5Z,13E)-(9α,15S)-9,15-dihydroxy-11-oxoprosta-2,5,13-trienoic acid], the inhibition at 1 µg/mL came to 2.1% in test [1] and 0% in test [2]. In addition, the inhibition at 5 µg/mL worked out at 17.9% in test [1] and 19.4% in test [2].
